Measurements from patent publication US20230136297A1, “Methods Of Treating Fabry Disease In Patients Having A Mutation In The GLA Gene” (Amicus Therapeutics, Inc., priority 2020, published 2023).
Positions count from the first letter of the chain named.

Legend:
Assay in all cases: α-Gal A activity in lysates of transfected HEK-293 cells ± migalastat (HEK assay)
Format in all cases: cell-based
[1] = molecular target: T1, α-Gal A mutant form Y152N (Homo sapiens, UniProt P06280, Y152N)
T1 construct: expressed in transfected cells; host or cells: HEK-293
T1 sequence (P06280 32-429 Y152N): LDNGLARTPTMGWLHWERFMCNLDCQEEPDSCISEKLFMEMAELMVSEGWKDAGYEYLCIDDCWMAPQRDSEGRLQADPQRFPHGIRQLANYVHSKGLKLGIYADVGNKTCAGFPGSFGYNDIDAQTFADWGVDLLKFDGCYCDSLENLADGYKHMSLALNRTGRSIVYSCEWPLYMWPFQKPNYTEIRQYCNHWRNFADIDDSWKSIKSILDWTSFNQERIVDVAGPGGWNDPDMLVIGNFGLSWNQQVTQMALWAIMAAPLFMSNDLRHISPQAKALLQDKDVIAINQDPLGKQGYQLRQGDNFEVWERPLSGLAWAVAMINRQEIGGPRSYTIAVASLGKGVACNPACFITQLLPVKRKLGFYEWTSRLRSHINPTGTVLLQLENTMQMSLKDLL
In short: (§1)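 Activity is reported as nmol of free 4-MU released per mg protein per hour (nmol/mg/hr).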

α-Gal A mutant form R38S = molecular target: T2, α-Gal A mutant form R38S (Homo sapiens, UniProt P06280, R38S)
T2 construct: expressed in transfected cells; host or cells: HEK-293
T2 sequence (P06280 32-429 R38S): T1 sequence (P06280 32-429 Y152N) with R7S, N121Y
In short: as §1

[2] = molecular target: T3, α-Gal A mutant form A143V (Homo sapiens, UniProt P06280, A143V)
T3 construct: expressed in transfected cells; host or cells: HEK-293
T3 sequence (P06280 32-429 A143V): T1 sequence (P06280 32-429 Y152N) with A112V, N121Y
In short: as §1

[3] = molecular target: T4, α-Gal A mutant form D165N (Homo sapiens, UniProt P06280, D165N)
T4 construct: expressed in transfected cells; host or cells: HEK-293
T4 sequence (P06280 32-429 D165N): T1 sequence (P06280 32-429 Y152N) with N121Y, D134N
In short: as §1

[4] = molecular target: T5, α-Gal A mutant form F159C (Homo sapiens, UniProt P06280, F159C)
T5 construct: expressed in transfected cells; host or cells: HEK-293
T5 sequence (P06280 32-429 F159C): T1 sequence (P06280 32-429 Y152N) with N121Y, F128C
In short: as §1

[5] = 10 μM migalastat minus baseline
[6] = HEK-293 lysates, 10 μM migalastat 5 days, mean ± SEM

OC[C@H]1NC[C@H](O)[C@@H](O)[C@H]1O [migalastat, (2R,3S,4R,5S)-2-(hydroxymethyl) piperdine-3,4,5-triol]
Absolute increase (% WT) [1, 5]: 25.9 % WT
Relative increase ([1]; 10 μM migalastat ÷ baseline): 1.97
10 μM migalastat α-Gal A activity [1, 6]: 18554 ± 1297 nmol/mg/h
10 μM migalastat α-Gal A activity (% WT) [1, 6]: 51.6 ± 2.2 % WT
Absolute increase (% WT) (α-Gal A mutant form R38S; [5]): 26.6 % WT
Relative increase (α-Gal A mutant form R38S; 10 μM migalastat ÷ baseline): 1.29
10 μM migalastat α-Gal A activity (α-Gal A mutant form R38S; [6]): 30928 ± 1484 nmol/mg/h
10 μM migalastat α-Gal A activity (% WT) (α-Gal A mutant form R38S; [6]): 100 ± 9.3 % WT
Absolute increase (% WT) [2, 5]: 31.7 % WT
Relative increase ([2]; 10 μM migalastat ÷ baseline): 3.24
10 μM migalastat α-Gal A activity [2, 6]: 13309 ± 921 nmol/mg/h
10 μM migalastat α-Gal A activity (% WT) [2, 6]: 45.5 ± 3.2 % WT
Absolute increase (% WT) [3, 5]: 34 % WT
Relative increase ([3]; 10 μM migalastat ÷ baseline): 6.86
10 μM migalastat α-Gal A activity [3, 6]: 10562 ± 1017 nmol/mg/h
10 μM migalastat α-Gal A activity (% WT) [3, 6]: 40 ± 2.7 % WT
Absolute increase (% WT) [4, 5]: 15.8 % WT
Relative increase ([4]; 10 μM migalastat ÷ baseline): 2.07
10 μM migalastat α-Gal A activity [4, 6]: 9238 ± 513 nmol/mg/h
10 μM migalastat α-Gal A activity (% WT) [4, 6]: 29.6 ± 2.3 % WT
